Data as given in PubChem BioAssay (NCI).
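Tested at 5 concentrations; 48 h exposure; 96-well plates; endpoints linearly interpolated, else capped at highest concentration. At the GI50, growth is halved. TGI: concentration producing complete growth inhibition.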

Columns and labels:
Experiment in all cases: DTP human tumour cell line panel, 48 h
[1] = system: NCI-H226 lung
[2] = system: OVCAR-8 ovarian
[3] = system: SF-295 CNS
[4] = system: EKVX NSCLC
[5] = system: NCI/ADR-RES ovarian
[6] = system: SR leukemia
[7] = system: U251 CNS
[8] = system: K-562 leukemia
[9] = system: HCC-2998 colon
[10] = system: UACC-257 melanoma
[11] = system: SF-268 CNS
[12] = system: COLO 205 colon
[13] = system: SNB-75 CNS
[14] = system: OVCAR-4 ovarian
[15] = system: KM12 colon
[16] = system: UACC-62 melanoma
[17] = system: IGROV1 ovarian
[18] = system: SK-MEL-2 melanoma
[19] = system: HT29 colon
[20] = system: SK-OV-3 ovarian
[21] = system: NCI-H460 lung
[22] = system: TK-10 renal
[23] = system: NCI-H23 lung
[24] = system: A498 renal
[25] = system: MDA-MB-231 breast
[26] = system: HL-60(TB) leukemia
[27] = system: CAKI-1 renal
[28] = system: SN12C renal
[29] = system: UO-31 renal
[30] = system: T-47D breast
[31] = system: MOLT-4 leukemia
[32] = system: HOP-62 NSCLC
[33] = system: A549 NSCLC
[34] = system: ACHN renal
[35] = system: PC-3 prostate
[36] = system: HOP-92 NSCLC
[37] = system: RXF 393 renal
[38] = system: RPMI-8226 leukemia
[39] = system: HS 578T breast
[40] = system: NCI-H522 lung
[41] = system: SK-MEL-5 melanoma
[42] = system: SNB-19 CNS
[43] = system: HCT-15 colon
[44] = system: 786-0 renal
[45] = system: SK-MEL-28 melanoma
[46] = system: LOX IMVI melanoma
[47] = system: CCRF-CEM leukemia
[48] = system: MDA-MB-435
[49] = system: MALME-3M melanoma
[50] = system: SF-539 CNS
[51] = system: HCT-116 colon
[52] = system: DU-145 prostate
[53] = system: SW-620 colon
[54] = system: OVCAR-5 ovarian
[55] = system: M14 melanoma
[56] = system: OVCAR-3 ovarian
[57] = system: BT-549 breast

SMILES: c1ccc(N=c2sc3ccccc3nc2Nc2ccccc2)cc1
- TGI [1]: > 100000 nM
- TGI [2]: > 100000 nM
- TGI [3]: > 100000 nM
- TGI [4]: > 100000 nM
- TGI [5]: > 100000 nM
- TGI [6]: > 100000 nM
- TGI [7]: > 100000 nM
- TGI [8]: > 100000 nM
- TGI [9]: > 100000 nM
- TGI [10]: > 100000 nM
- TGI [11]: > 100000 nM
- TGI [12]: > 100000 nM
- TGI [13]: > 100000 nM
- TGI [14]: > 100000 nM
- TGI [15]: > 100000 nM
- TGI [16]: > 100000 nM
- TGI [17]: > 100000 nM
- TGI [18]: > 100000 nM
- TGI [19]: > 100000 nM
- TGI [20]: > 100000 nM
- TGI [21]: > 100000 nM
- TGI [22]: > 100000 nM
- TGI [23]: > 100000 nM
- TGI [24]: > 100000 nM
- TGI [25]: > 100000 nM
- TGI [26]: > 100000 nM
- TGI [27]: > 100000 nM
- TGI [28]: > 100000 nM
- TGI [29]: > 100000 nM
- TGI [30]: > 100000 nM
- TGI [31]: > 100000 nM
- TGI [32]: > 100000 nM
- TGI [33]: > 100000 nM
- TGI [34]: > 100000 nM
- TGI [35]: > 100000 nM
- TGI [36]: > 100000 nM
- TGI [37]: > 100000 nM
- TGI [38]: > 100000 nM
- TGI [39]: > 100000 nM
- TGI [40]: > 100000 nM
- TGI [41]: > 100000 nM
- TGI [42]: > 100000 nM
- TGI [43]: > 100000 nM
- TGI [44]: > 100000 nM
- TGI [45]: > 100000 nM
- TGI [46]: > 100000 nM
- TGI [47]: > 100000 nM
- TGI [48]: > 100000 nM
- TGI [49]: > 100000 nM
- TGI [50]: > 100000 nM
- TGI [51]: > 100000 nM
- TGI [52]: > 100000 nM
- TGI [53]: > 100000 nM
- TGI [54]: > 100000 nM

SMILES: COc1cnc2c(c1)C(=O)c1c-2n(CCCN2CCOCC2)c(=O)c2cc(F)ccc12
- GI50 [1]: 206 nM
- TGI [1]: 1140 nM
- GI50 [2]: 246 nM
- TGI [2]: > 100000 nM
- GI50 [3]: 141 nM
- TGI [3]: 864 nM
- GI50 [4]: 482 nM
- TGI [4]: > 100000 nM
- GI50 [5]: 299 nM
- TGI [5]: > 100000 nM
- GI50 [6]: 82.9 nM
- TGI [6]: 1270 nM
- GI50 [7]: 93.6 nM
- TGI [7]: 563 nM
- GI50 [8]: 320 nM
- TGI [8]: > 100000 nM
- GI50 [9]: 2750 nM
- TGI [9]: > 100000 nM
- GI50 [11]: 265 nM
- TGI [11]: > 100000 nM
- GI50 [13]: 362 nM
- TGI [13]: 9700 nM
- GI50 [14]: 352 nM
- TGI [14]: > 100000 nM
- GI50 [15]: 316 nM
- TGI [15]: > 100000 nM
- GI50 [16]: 235 nM
- TGI [16]: 926 nM
- GI50 [17]: 354 nM
- TGI [17]: > 100000 nM
- GI50 [18]: 1670 nM
- TGI [18]: 5180 nM
- GI50 [19]: 147 nM
- TGI [19]: 638 nM
- GI50 [20]: 282 nM
- TGI [20]: 1920 nM
- GI50 [21]: 57.3 nM
- TGI [21]: 487 nM
- GI50 [22]: 489 nM
- TGI [22]: 16300 nM
- GI50 [23]: 284 nM
- TGI [23]: 1840 nM
- GI50 [24]: 172 nM
- TGI [24]: 911 nM
- GI50 [25]: 1600 nM
- TGI [25]: > 100000 nM
- GI50 [26]: 373 nM
- TGI [26]: 2850 nM
- GI50 [28]: 320 nM
- TGI [28]: > 100000 nM
- GI50 [30]: 118 nM
- TGI [30]: 690 nM
- GI50 [31]: 106 nM
- TGI [31]: 637 nM
- GI50 [32]: 187 nM
- TGI [32]: 991 nM
- GI50 [34]: 177 nM
- TGI [34]: 600 nM
- GI50 [35]: 369 nM
- TGI [35]: > 100000 nM
- GI50 [36]: 858 nM
- TGI [36]: 6860 nM
- GI50 [37]: 226 nM
- TGI [37]: 913 nM
- GI50 [38]: 135 nM
- TGI [38]: 804 nM
- GI50 [39]: 1500 nM
- TGI [39]: 23300 nM
- GI50 [41]: 169 nM
- TGI [41]: 446 nM
- GI50 [42]: 264 nM
- TGI [42]: 7000 nM
- GI50 [44]: 254 nM
- TGI [44]: 1200 nM
- GI50 [55]: 288 nM
- TGI [55]: > 100000 nM
- GI50 [45]: 1200 nM
- TGI [45]: > 100000 nM
- GI50 [46]: 161 nM
- TGI [46]: 387 nM
- GI50 [56]: 250 nM
- TGI [56]: 2370 nM
- GI50 [47]: 85.3 nM
- TGI [47]: > 100000 nM
- GI50 [48]: 454 nM
- TGI [48]: > 100000 nM
- GI50 [49]: 503 nM
- TGI [49]: 3420 nM
- GI50 [57]: 523 nM
- TGI [57]: > 100000 nM
- GI50 [50]: 288 nM
- TGI [50]: 1080 nM
- GI50 [52]: 341 nM
- TGI [52]: > 100000 nM
- GI50 [53]: 149 nM
- TGI [53]: > 100000 nM
